Key:
mesenchymal stem cells = experiment: GeneChip analysis using mesenchymal stem cells; assay type: cell-based, human; conditions: 1,5-AG reduced from 40 μg/mL to 1 μg/mL or less, 10th day
Experimental: GeneChip analysis using mesenchymal stem cells was carried out to clarify the function of 1,5-AG in a human. After 1,5-AG was added to a medium to ensure that the final concentration of 1,5-AG became not more than 1 μg/mL or 40 μg/mL and the mesenchymal stem cells were cultured for 10 days, total RNA was collected to carry out GeneChip analysis so as to analyze genes which were expressed and fluctuated according to the difference in the amount of 1,5-AG cyclopaedically. A similar test was carried out 3 times to obtain results which were then summarized and analyzed. The test was carried out by the following method.
Crystalline 1,5-AG was dissolved in pure water to a concentration of 40 mg/mL and filtered with a centrifugal ultrafiltration membrane having a molecular weight cut-off of 3,000 to remove trace macromolecules.
Mesenchymal cells derived from bone marrow (Riken Cell Bank, Resource No. MSC-R46)
DMEM prepared by adding 10% fetal bovine serum (FBS) and a 3 ng/mL fibroblast growth factor (FGF-2) (to be referred to as “growth medium” hereinafter) was used for the preculture of the mesenchymal stem cells. 10% FBS-added DMEM (to be referred to as “test medium” hereinafter) was used in this test. FGF-2 has the function of keeping the undifferentiated state of the mesenchymal stem cells, and the undifferentiated state of the cells was maintained by using the FGF-2-added medium during preculture. In this test, to analyze the differentiation-inducing effect of the sample, a medium containing no FGF-2 was used.
The human mesenchymal cells were initiated in a T-75 flask by using the growth medium and cultured in a CO2 incubator (5% CO2, 37° C., moistening). Medium exchange was carried out every 2 days, and the cells were separated by using 0.25% Trypsin/EDTA when 80% confluence was reached and collected to be used in this test.
The sample was added to a test medium to ensure that the final concentration of 1,5-AG became 40 μg/mL. […]

PC12 cells = experiment: Determination of neurite outgrowth rate in PC12 cells (image count); assay type: cell-based; conditions: for cells showing a neurite outgrowth rate of 1 time or more / cells showing a neurite outgrowth rate of 2 times or more: 96 hours
Experimental: PSG-1 belongs to an immunoglobulin super family which includes some having the function of promoting neurogenesis. Then, the influence of 1,5-AG upon neuritogenesis was investigated. This was evaluated in a test system using PC12 cells which are generally used for the evaluation of neuritogenesis.
PC12 cells (Lot No. 48, Lot No. 51) (RIKEN cell bank, material 1)
DMEM medium prepared by adding 0.1% of FBS, 0.1% of HS, 1 ng/mL NGF and 1% of penicillin-streptomycin
PC12 cells were initiated in a T-75 flask by using a growth medium to be cultured in a CO2 incubator (5% CO2, 37° C., moistening). Medium exchange was carried out every 2 days, the cells were collected when 80% confluence was reached, and cells having a passage number of 2 were used in this test. Stated more specifically, after the cells were washed with D-PBS (−), the cells were separated by using 0.05% trypsin, and a growth medium was added to neutralize trypsin. Then, the supernatant was removed by centrifugation (180 g, 5 minutes), a growth medium was added to stir the cells, the number of the cells was counted by using a corpuscle calculating board, and a growth medium was used to achieve a target concentration (2.0×10^3 cells/100 μL).
A test was carried out at five concentrations (1.6, 8, 40, 200 and 1,000 μg/mL) of 1,5-AG. Stated more specifically, a 1,5-AG aqueous solution having a concentration of 100 mg/mL was diluted with water to prepare 100 times-concentrated solutions having concentrations of 0.16, 0.8, 4, 20 and 100 mg/mL. These 100 times-concentrated solutions were each added to a test medium in a ratio of 1/100 to achieve final concentrations of 1.6, 8, 40, 200 and 1,000 μg/mL and sterilized with a filter to be used in the test. As a negative control, water was added to a medium in a ratio of 1/100 and sterilized with a filter to be used in the test. As a positive control, a test medium containing a 100 ng/mL nerve growth factor (NGF) was used.
A growth medium was used to adjust the cells to a concentration of 2.0×10^3 cells/100 μL/well, and the cells were scattered in a collagen-coated 96-well plate to be cultured in a CO2 incubator (5% CO2, 37° C., moistening) for 24 hours. After culture, the medium was replaced by a sample-containing test medium (100 μL), and the cells were cultured in a CO2 incubator for 96 hours. After the end of culture, an image of the cells in each well was taken with a phase difference microscope and used for the measurement of nuetrite outgrowth rate, and nuclei and cytoplasms were fluorescent dyed by using a neurite outgrowth staining kit to measure the number of living cells and the amount of neurite outgrowth. These procedures were carried out five times each.
Based on the image taken above, the total number of cells, the number of cells showing the same or higher neurite outgrowth than the cell length and the number of cells showing neurites having a length 2 times or more than the cell length were measured from the image of the cells. The percentage (%) of cells showing neurite outgrowth was calculated from the measurement values.

Compound: OC[C@H]1OC[C@H](O)[C@@H](O)[C@@H]1O [1,5-AG, 1,5-anhydro-D-glucitol]
- expression of CSH-1 (mesenchymal stem cells): decreases as well
- expression of interleukin 6 signal transducer (IL6ST) gene (mesenchymal stem cells): reduced most
- expression of pregnancy specific beta-1-glycoprotein 1 (PSG-1) gene (mesenchymal stem cells; rank among genes whose expression was reduced): observed after these
- cells showing a neurite outgrowth rate of 1 time or more (PC12 cells; 40 μg/mL 1,5-AG): 15.8%
- cells showing a neurite outgrowth rate of 2 times or more (PC12 cells; 40 μg/mL 1,5-AG): 10.3%
- cells showing a neurite outgrowth rate of 1 time or more (PC12 cells; 200 μg/mL 1,5-AG): 18.7%
- cells showing a neurite outgrowth rate of 2 times or more (PC12 cells; 200 μg/mL 1,5-AG): 10.4%
- cells showing a neurite outgrowth rate of 2 times or more, relative to non-added section (PC12 cells; 40 and 200 μg/mL 1,5-AG): about 2 times

From patent US20170223976A1, “MODIFIED MILK POWDER CONTAINING 1,5-ANHYDRO-D-GLUCITOL” (NIHON STARCH CO., LTD., priority 2015, published 2017)
